According to PubChem BioAssay AID1259407 (Chemical Carcinogenesis Research Information System (CCRIS), 2018):
The source made the active and inactive calls. No rule for the calls is given here.

Tested on: CCRIS mutagenicity, Ames/micronucleus/aberration tests
Assay: CCRIS mutagenicity studies
[1] = Test System: AMES SALMONELLA TYPHIMURIUM, Strain/Indicator: TA98, Metabolic Activation: NONE, Method: STANDARD PLATE
[2] = Test System: AMES SALMONELLA TYPHIMURIUM, Strain/Indicator: TA100, Metabolic Activation: NONE, Method: STANDARD PLATE

## Cc1cc(C)c(C)c(C)c1
Test System: AMES SALMONELLA TYPHIMURIUM, Strain/Indicator: TA97A, Metabolic Activation: NONE, Method: STANDARD PLATE
  mutagenic call: active; positive
Test System: AMES SALMONELLA TYPHIMURIUM, Strain/Indicator: TA97A, Metabolic Activation: RAT LIVER S-9, AROCLOR 1254, Method: STANDARD PLATE
  mutagenic call: inactive; negative
[1]
  mutagenic call: inactive; negative
Test System: AMES SALMONELLA TYPHIMURIUM, Strain/Indicator: TA98, Metabolic Activation: RAT LIVER S-9, AROCLOR 1254, Method: STANDARD PLATE
  mutagenic call: inactive; negative
[2]
  mutagenic call: inactive; negative
Test System: AMES SALMONELLA TYPHIMURIUM, Strain/Indicator: TA100, Metabolic Activation: RAT LIVER S-9, AROCLOR 1254, Method: STANDARD PLATE
  mutagenic call: inactive; negative
Test System: AMES SALMONELLA TYPHIMURIUM, Strain/Indicator: TA102, Metabolic Activation: NONE, Method: STANDARD PLATE
  mutagenic call: inactive; negative
Test System: AMES SALMONELLA TYPHIMURIUM, Strain/Indicator: TA102, Metabolic Activation: RAT LIVER S-9, AROCLOR 1254, Method: STANDARD PLATE
  mutagenic call: inactive; negative

## O=C1C=Cc2ccc3c4c(ccc1c24)C(=O)c1ccccc1-3
Test System: CHINESE HAMSTER V-79, Strain/Indicator: V-79/8-AZAGUANINE, Metabolic Activation: NONE, Method: STANDARD PLATE
  mutagenic call: active; positive

## Cn1ccc2ccc3ccc4ccc(O)cc4c3c21
Test System: AMES SALMONELLA TYPHIMURIUM, Strain/Indicator: TA98, Metabolic Activation: RAT, LIVER, S-9, AROCLOR, Method: STANDARD PLATE
  mutagenic call: active; positive

## O=C(O)c1oc([N+](=O)[O-])c(-c2ccccc2)c1-c1ccccc1
[1]
  mutagenic call: inactive; negative
[2]
  mutagenic call: active; positive

## O=P(O)(O)CCCl
End Point: In vitro chromosomal aberrations, Test System: Chinese hamster ovary (CHO-WBL) cells, Metabolic Activation: None
  mutagenic call: inactive; negative
End Point: In vitro chromosomal aberrations, Test System: Chinese hamster ovary (CHO-WBL) cells, Metabolic Activation: Rat, Liver, S-9, Aroclor 1254
  mutagenic call: inactive; negative
Test System: Chinese hamster ovary cells, Strain/Indicator: CHO-K1-BH4 (HGPRT)/6-Thioguanine, Metabolic Activation: None, Method: Suspension/Plate?
  mutagenic call: inactive; negative (an increase in mutation frequency at 2.5 mg/ml not confirmed in repeat
Test System: Chinese hamster ovary cells, Strain/Indicator: CHO-K1-BH4 (HGPRT)/6-Thioguanine, Metabolic Activation: Rat, Liver, S-9, Aroclor 1254, Method: Suspension/Plate?
  mutagenic call: inactive; negative (an increase in mutation frequency at 2.5 mg/ml not confirmed in repeat

## CCCCNc1snc2ccccc12
[1]
  mutagenic call: inactive; negative
Test System: AMES SALMONELLA TYPHIMURIUM, Strain/Indicator: TA98, Metabolic Activation: S-9, Method: STANDARD PLATE
  mutagenic call: inactive; negative
[2]
  mutagenic call: inactive; negative
Test System: AMES SALMONELLA TYPHIMURIUM, Strain/Indicator: TA100, Metabolic Activation: S-9, Method: STANDARD PLATE
  mutagenic call: inactive; negative
Test System: AMES SALMONELLA TYPHIMURIUM, Strain/Indicator: TA1535, Metabolic Activation: NONE, Method: STANDARD PLATE
  mutagenic call: inactive; negative
Test System: AMES SALMONELLA TYPHIMURIUM, Strain/Indicator: TA1535, Metabolic Activation: S-9, Method: STANDARD PLATE
  mutagenic call: inactive; negative
Test System: AMES SALMONELLA TYPHIMURIUM, Strain/Indicator: TA1537, Metabolic Activation: NONE, Method: STANDARD PLATE
  mutagenic call: inactive; negative
Test System: AMES SALMONELLA TYPHIMURIUM, Strain/Indicator: TA1537, Metabolic Activation: S-9, Method: STANDARD PLATE
  mutagenic call: inactive; negative

## COC(=O)/C(C#N)=C/c1ccc([N+](=O)[O-])o1
Test System: AMES SALMONELLA TYPHIMURIUM, Strain/Indicator: TA98, Metabolic Activation: NONE, Method: PREINCUBATION
  mutagenic call: active; positive

## FC(F)(Cl)C(F)(F)Cl
Test System: AMES SALMONELLA TYPHIMURIUM, Strain/Indicator: TA98, Metabolic Activation: NONE, Method: GAS EXPOSURE
  mutagenic call: inactive; negative
Test System: AMES SALMONELLA TYPHIMURIUM, Strain/Indicator: TA98, Metabolic Activation: RAT LIVER S-9, PHENOBARBITAL AND BETA-NAPHTHOFLAVONE (40%), Method: GAS EXPOSURE
  mutagenic call: inactive; negative
Test System: AMES SALMONELLA TYPHIMURIUM, Strain/Indicator: TA100, Metabolic Activation: NONE, Method: GAS EXPOSURE
  mutagenic call: inactive; negative
Test System: AMES SALMONELLA TYPHIMURIUM, Strain/Indicator: TA100, Metabolic Activation: RAT LIVER S-9, PHENOBARBITAL AND BETA-NAPHTHOFLAVONE (40%), Method: GAS EXPOSURE
  mutagenic call: inactive; negative
Test System: AMES SALMONELLA TYPHIMURIUM, Strain/Indicator: TA1535, Metabolic Activation: NONE, Method: GAS EXPOSURE
  mutagenic call: inactive; negative
Test System: AMES SALMONELLA TYPHIMURIUM, Strain/Indicator: TA1535, Metabolic Activation: RAT LIVER S-9, PHENOBARBITAL AND BETA-NAPHTHOFLAVONE (40%), Method: GAS EXPOSURE
  mutagenic call: inactive; negative
Test System: AMES SALMONELLA TYPHIMURIUM, Strain/Indicator: TA1537, Metabolic Activation: NONE, Method: GAS EXPOSURE
  mutagenic call: inactive; negative
Test System: AMES SALMONELLA TYPHIMURIUM, Strain/Indicator: TA1537, Metabolic Activation: RAT LIVER S-9, PHENOBARBITAL AND BETA-NAPHTHOFLAVONE (40%), Method: GAS EXPOSURE
  mutagenic call: inactive; negative
Test System: E.COLI, Strain/Indicator: WP2UVRA, Metabolic Activation: NONE, Method: GAS EXPOSURE
  mutagenic call: inactive; negative
Test System: E.COLI, Strain/Indicator: WP2UVRA, Metabolic Activation: RAT LIVER S-9, PHENOBARBITAL AND BETA-NAPHTHOFLAVONE (40%), Method: GAS EXPOSURE
  mutagenic call: inactive; negative

## O=[N+]([O-])c1cccc(CO/N=C/c2nc3cc([N+](=O)[O-])ccc3n2Cc2ccc(F)cc2)c1
[1]
  mutagenic call: inactive; negative
Test System: AMES SALMONELLA TYPHIMURIUM, Strain/Indicator: TA98, Metabolic Activation: RAT, LIVER, S-9, PHENOBARBITAL AND BETA-NAPHTHOFLAVONE, Method: STANDARD PLATE
  mutagenic call: inactive; negative
[2]
  mutagenic call: inactive; negative
Test System: AMES SALMONELLA TYPHIMURIUM, Strain/Indicator: TA100, Metabolic Activation: RAT, LIVER, S-9, PHENOBARBITAL AND BETA-NAPHTHOFLAVONE, Method: STANDARD PLATE
  mutagenic call: inactive; negative

## O=C1Cc2cc3ccc([N+](=O)[O-])cc3cc2[C@H](O)[C@H]1O
[1]
  mutagenic call: inactive; negative
